Laboratory results reported in article PMC8398255, “Synthesis of 3,5-Bis(trifluoromethyl)phenyl-Substituted Pyrazole Derivatives as Potent Growth Inhibitors of Drug-Resistant Bacteria” (Molecules, 2021).
≈ marks a conversion by molar mass, not a printed value. Read-outs that look alike come from different tables or passages of the source.

How the values were obtained:
[1] = system: MRSA persisters (S. aureus ATCC 700699); assay: Persister Time Kill Assay; assay type: cell-based, Staphylococcus aureus; details: for decrease of persister cells: 2× MIC, 8 h; for persisters eradicated: within 8 h at all the 4× MIC, 8× MIC and 16× MIC concentrations
Procedure: (§1) The persister assay was performed following the methodology described previously. Briefly, for persister viability assays, S. aureus ATCC 700699 strain (MRSA) was grown to stationary phase in CAMHB medium by shaking at 200 rpm in a shaking incubator for 24 h at 35 °C. […] After incubation, 400 µL aliquot was washed, serially diluted in PBS, and plated in blood agar plate for viable colony count.
Likewise, for persister time-kill assays, the persister cells were treated at varied concentrations and incubated with shaking. At the start and every 2 h until 8 h, 400 µL samples were washed, serially diluted, and plated on blood agar using the 6 × 6 drop plate method. Plates were incubated for 18–20 h at 35 °C, before the colonies were counted to calculate CFU/mL. All the treatments were performed in triplicates.

[2] = system: S. aureus and E. faecalis biofilms; assay: Biofilm eradication, S. aureus and E. faecalis; assay type: cell-based
Procedure: (§2) Minimum biofilm eradication concentration (MBEC) was determined using a Calgary device using the protocol reported elsewhere with some modifications. The Calgary device is a 96-well plate with a lid containing pegs to establish biofilms. Bacteria from an overnight plate culture were suspended to a 0.5 McFarland turbidity, then diluted 1:100 in a CAMHB containing 1% glucose which was inoculated in the 96 wells (150 μL in each well) and incubated at 35 °C for 24 h to establish biofilm on the pegs. The lid was then removed, washed with PBS in a fresh 96 well plate, then transferred to another 96-well plate containing 2-fold serial dilutions of the test compounds dissolved in PBS (150 μL total volume in each well). This plate was called the “challenge plate”. The challenge plate was incubated for an additional 24 h, and the lid was transferred to the next 96-well plate containing fresh CAMHB media with 1% glucose (180 μL) and further incubated for 24 h. […] All the compounds were tested in a minimum of three independent experiments.

[3] = system: S. aureus ATCC 25923 (Sa23); assay: MIC, microdilution (CLSI); assay type: cell-based; details: Staphylococcus aureus, ATCC25923
Procedure: (§3) Compounds were dissolved in dimethyl sulfoxide (DMSO) to achieve a starting concentration of 32 µg/mL as described by us previously. Compounds were further diluted two-fold across the 96-well honeycomb plate columns in cation adjusted Mueller Hinton broth (CAMHB), and bacterial culture was added. Plates were incubated for 18–20 h at 35 ℃ before determining the minimum concentrations at which wells had no visible turbidity to the naked eye. The MIC values were determined from at least a duplicate result obtained from three independent experiments using fresh bacterial cultures on different days.

[4] = system: S. aureus BAA-2312 (Sa12); assay: MIC, microdilution (CLSI); assay type: cell-based; details: Staphylococcus aureus, BAA2312
Procedure: as §3

[5] = system: S. aureus ATCC 33592 (Sa92); assay: MIC, microdilution (CLSI); assay type: cell-based; details: Staphylococcus aureus, ATCC33592
Procedure: as §3

[6] = system: E. faecalis ATCC 51299 (Ef99); assay: MIC, microdilution (CLSI); assay type: cell-based; details: Enterococcus faecalis, ATCC 51299 / VRE
Procedure: as §3

[7] = system: S. aureus ATCC 700699 (Sa99); assay: MIC, microdilution (CLSI); assay type: cell-based; details: Staphylococcus aureus, ATCC700699
Procedure: as §3

[8] = system: S. epidermidis ATCC 700296 (Se); assay: MIC, microdilution (CLSI); assay type: cell-based; details: Staphylococcus epidermidis, ATCC700296
Procedure: as §3

[9] = system: E. faecalis ATCC 29212 (Ef12); assay: MIC, microdilution (CLSI); assay type: cell-based; details: Enterococcus faecalis, ATCC29212
Procedure: as §3

[10] = system: S. aureus ATCC 33591 (Sa91); assay: MIC, microdilution (CLSI); assay type: cell-based; details: Staphylococcus aureus, ATCC33591
Procedure: as §3

[11] = system: E. faecium ATCC 700221 (Ef21); assay: MIC, microdilution (CLSI); assay type: cell-based; details: Enterococcus faecium, ATCC 700221 / VRE
Procedure: as §3

[12] = system: Bacillus subtilis ATCC 6623 (Bs); assay: MIC, microdilution (CLSI); assay type: cell-based; details: ATCC6623
Procedure: as §3

[13] = system: E. faecalis biofilms (Efs12); assay: Biofilm eradication (MBEC), Calgary Biofilm Device; assay type: cell-based
Procedure: as §2

[14] = system: S. aureus ATCC 700699 persisters; assay: Persister viability assay; assay type: cell-based, Staphylococcus aureus; details: 32× MIC, 4 h; for activity against persisters: S. aureus ATCC 700699 persisters
Procedure: as §1

[15] = Cytotoxicity assay (resazurin); assay type: cell-based; details: human, HEK-293 cells, 24 h treatment, n = 3
Procedure: The human embryonic kidney cell line (HEK-293) was used to assess the cytotoxicity of the antibiotics as described by us previously. HEK-293 cells were cultured in Dulbecco’s modified eagle’s medium (DMEM) containing 10% Fetal Bovine Serum (FBS) and incubated at 37 °C in the presence of 5% carbon dioxide. HEK-293 cells were cultured in 96-well black plates with 6000 cells per well for the first 24 h followed by treatment with a range of concentrations of antibiotics dissolved in DMSO for the next 24 h. After the second period of incubation, resazurin (40 µL of 0.15 mg/mL) was added to each well and incubated for an additional 4 h. Reduction of resazurin was measured fluorometrically with excitation wavelength at 560 nm and emission at 590 nm using BioTek™ Cytation™5 plate reader. Percentage viability of HEK cells for each range of concentrations was calculated, taking the fluorescence value of the wells treated with DMSO as a reference, using Microsoft® Excel® for Office 365 MSO. IC50 values were computed using the calculated percentage viability values through data processing in Graphpad Prism 7 for Windows, Version 7.04.

[16] = system: S. aureus biofilms (Sa23); assay: Biofilm eradication (MBEC), Calgary Biofilm Device; assay type: cell-based, Staphylococcus aureus
Procedure: as §2

[17] = system: MRSA (S. aureus ATCC 700699); assay: Time Kill Assay; assay type: cell-based, Staphylococcus aureus; details: 4× MIC, positive controls
[18] = system: Gram-positive bacteria; assay: MIC across the tested strains; assay type: cell-based; details: against several bacterial strains
Procedure: as §3

[19] = Sa23, antibiotic susceptible S. aureus ATCC 25923, n = 3, read-out: MIC
[20] = Sa12, methicillin-resistant S. aureus BAA-2312, n = 3, read-out: MIC
[21] = Sa92, methicillin-resistant S. aureus ATCC 33592, n = 3, read-out: MIC
[22] = Ef99, vancomycin-resistant (VRE) E. faecalis ATCC 51299, n = 3, read-out: MIC
[23] = Sa99, methicillin-resistant S. aureus ATCC 700699, n = 3, read-out: MIC
[24] = Se, S. epidermidis ATCC 700296, n = 3, read-out: MIC
[25] = Ef12, antibiotic susceptible E. faecalis ATCC 29212, n = 3, read-out: MIC
[26] = Sa91, methicillin-resistant S. aureus ATCC 33591, n = 3, read-out: MIC
[27] = Ef21, vancomycin-resistant (VRE) E. faecium ATCC 700221, n = 3, read-out: MIC
[28] = Bs, Bacillus subtilis ATCC 6623, n = 3, read-out: MIC

Row | SMILES | MIC [3, 19] [µg/mL] | MIC [4, 20] [µg/mL] | MIC [5, 21] [µg/mL] | MIC [6, 22] [µg/mL] | MIC [7, 23] [µg/mL] | MIC [8, 24] [µg/mL] | MIC [9, 25] [µg/mL] | MIC [10, 26] [µg/mL] | MIC [11, 27] [µg/mL] | MIC [12, 28] [µg/mL] | decrease of persister cells [1] [log value] | persisters eradicated [1] | MBEC values [2] [µg/mL] | MBEC [13] [µg/mL] | reduction of the population of persisters compared to the positive controls [14] [log values] | activity against persisters [14] | IC50 at 24 h [15] [µg/mL] | MBEC [16] [µg/mL] | time to eliminate >99.9% CFUs [17] [h] | further results
1 | O=C(O)c1ccc(-n2cc(CNc3ccc(Br)cc3)c(-c3cc(C(F)(F)F)cc(C(F)(F)F)c3)n2)cc1 [Compound 11, 4-[3-[3,5-Bis(trifluoromethyl)phenyl]-4-[(4-bromoanilino)methyl]pyrazol-1-yl] benzoic acid] | 2 (≈ 3.42 µM) | 1 (≈ 1.71 µM) | 1 (≈ 1.71 µM) | 1 (≈ 1.71 µM) | 2 (≈ 3.42 µM) | 2 (≈ 3.42 µM) | 2 (≈ 3.42 µM) | 1 (≈ 1.71 µM) | 1 (≈ 1.71 µM) | 1 (≈ 1.71 µM) | 1 | more than 3 log values |  | 4 | 4 | very effective | 7 to 8 (≈ 12 to 13.7 µM) |  |  | 
2 | O=C(O)c1ccc(-n2cc(CNc3ccc(Oc4ccccc4)cc3)c(-c3cc(C(F)(F)F)cc(C(F)(F)F)c3)n2)cc1 [Compound 5, 4-[3-[3,5-Bis(trifluoromethyl)phenyl]-4-[(4-phenoxyanilino)methyl]pyrazol-1-yl] benzoic acid] | 1 (≈ 1.67 µM) | 2 (≈ 3.35 µM) | 1 (≈ 1.67 µM) | 1 (≈ 1.67 µM) | 2 (≈ 3.35 µM) | 4 (≈ 6.69 µM) | 2 (≈ 3.35 µM) | 1 (≈ 1.67 µM) | 1 (≈ 1.67 µM) | 2 (≈ 3.35 µM) |  |  |  | >32 |  | partial activity | 9.15 (≈ 15.3 µM) | >32 |  | biofilm eradication property [2]: did not show any appreciable biofilm eradication property; MIC [18]: 1 µg/mL (≈ 1.67 µM)
3 | O=C(O)c1ccc(-n2cc(CNc3cc(Cl)c(F)c(Cl)c3)c(-c3cc(C(F)(F)F)cc(C(F)(F)F)c3)n2)cc1 [Compound 28, 4-[3-[3,5-Bis(trifluoromethyl)phenyl]-4-[(3,5-dichloro-4-fluoro-anilino)methyl]pyraz-ol-1-yl] benzoic acid] | 1 (≈ 1.69 µM) | 1 (≈ 1.69 µM) | 1 (≈ 1.69 µM) | 2 (≈ 3.38 µM) | 1 (≈ 1.69 µM) | 2 (≈ 3.38 µM) | 2 (≈ 3.38 µM) | 1 (≈ 1.69 µM) | 1 (≈ 1.69 µM) | 1 (≈ 1.69 µM) |  |  | ≥ 1 | 2 |  | very effective | 7 to 8 (≈ 11.8 to 13.5 µM) |  |  | 
4 | CN[C@H](CC(C)C)C(=O)N[C@H]1C(=O)N[C@@H](CC(N)=O)C(=O)N[C@H]2C(=O)N[C@H]3C(=O)N[C@H](C(=O)N[C@H](C(=O)O)c4cc(O)cc(O)c4-c4cc3ccc4O)[C@H](O)c3ccc(c(Cl)c3)Oc3cc2cc(c3O[C@@H]2O[C@H](CO)[C@@H](O)[C@H](O)[C@H]2O[C@H]2C[C@](C)(N)[C@H](O)[C@H](C)O2)Oc2ccc(cc2Cl)[C@H]1O [V, Vancomycin, reference compound] |  |  |  |  |  |  |  |  |  |  |  |  |  | >32 |  | failed to demonstrate persister kill activity |  | >32 | 8 | MIC [3]: 1 µg/mL (≈ 0.69 µM); MIC [4]: 0.5 µg/mL (≈ 0.345 µM); MIC [5]: 2 µg/mL (≈ 1.38 µM); MIC [6]: > 32 µg/mL; MIC [7]: 4 µg/mL (≈ 2.76 µM); MIC [8]: 2 µg/mL (≈ 1.38 µM); MIC [9]: 2 µg/mL (≈ 1.38 µM); MIC [10]: 2 µg/mL (≈ 1.38 µM); MIC [11]: > 32 µg/mL; MIC ([12]; Bacillus subtilis): 0.25 µg/mL (≈ 0.173 µM)

Further lines, with some results ahead:

Row | MIC [3, 19] [µg/mL] | MIC [4, 20] [µg/mL] | MIC [5, 21] [µg/mL] | MIC [6, 22] [µg/mL] | MIC [7, 23] [µg/mL] | MIC [8, 24] [µg/mL] | MIC [9, 25] [µg/mL] | MIC [10, 26] [µg/mL] | MIC [11, 27] [µg/mL] | MIC [12, 28] [µg/mL] | SMILES | decrease of persister cells [1] [log value] | persisters eradicated [1] | MBEC values [2] [µg/mL] | MBEC [13] [µg/mL] | reduction of the population of persisters compared to the positive controls [14] [log values] | activity against persisters [14] | IC50 at 24 h [15] [µg/mL] | MBEC [16] [µg/mL] | time to eliminate >99.9% CFUs [17] [h] | further results
5 | 2 (≈ 3.14 µM) | 1 (≈ 1.57 µM) | 1 (≈ 1.57 µM) | 2 (≈ 3.14 µM) | 2 (≈ 3.14 µM) | 2 (≈ 3.14 µM) | 2 (≈ 3.14 µM) | 1 (≈ 1.57 µM) | 1 (≈ 1.57 µM) | 2 (≈ 3.14 µM) | O=C(O)c1ccc(-n2cc(CNc3ccc(Br)c(Cl)c3F)c(-c3cc(C(F)(F)F)cc(C(F)(F)F)c3)n2)cc1 [Compound 29, 4-[3-[3,5-Bis(trifluoromethyl)phenyl]-4-[(4-bromo-3-chloro-2-fluoro-anilino)methyl]pyrazol-1-yl] benzoic acid] | ~2 | more than 3 log values | ≥ 1 | 2 | 4 | very effective | 7 to 8 (≈ 11 to 12.6 µM) |  |  | 
6 | 2 (≈ 1.23 µM) | 2 (≈ 1.23 µM) | 2 (≈ 1.23 µM) | 16 (≈ 9.87 µM) | 8 (≈ 4.94 µM) | 2 (≈ 1.23 µM) | 16 (≈ 9.87 µM) | 2 (≈ 1.23 µM) | 16 (≈ 9.87 µM) | 2 (≈ 1.23 µM) | CCCCCCCCCC(=O)N[C@@H](Cc1c[nH]c2ccccc12)C(=O)N[C@H](CC(N)=O)C(=O)N[C@@H](CC(=O)O)C(=O)N[C@@H]1C(=O)NCC(=O)N[C@@H](CCCN)C(=O)N[C@@H](CC(=O)O)C(=O)N[C@H](C)C(=O)N[C@@H](CC(=O)O)C(=O)NCC(=O)N[C@H](CO)C(=O)N[C@@H]([C@H](C)CC(=O)O)C(=O)N[C@@H](CC(=O)c2ccccc2N)C(=O)O[C@@H]1C [D, Daptomycin, reference compound] |  |  |  | >32 |  | failed to demonstrate persister kill activity |  | >32 | 6 | 
